The structures appear in SMILES notation.

The target of one assay is T1, MsParA (Ms6939) (Mycolicibacterium smegmatis, UniProt A0R7J4).
T1 construct: gene MSMEG_6939; recombinant, E. coli BL21, pET28a (6xHis) or pGEX-4T-1 (GST)
T1 sequence (A0R7J4 1-323): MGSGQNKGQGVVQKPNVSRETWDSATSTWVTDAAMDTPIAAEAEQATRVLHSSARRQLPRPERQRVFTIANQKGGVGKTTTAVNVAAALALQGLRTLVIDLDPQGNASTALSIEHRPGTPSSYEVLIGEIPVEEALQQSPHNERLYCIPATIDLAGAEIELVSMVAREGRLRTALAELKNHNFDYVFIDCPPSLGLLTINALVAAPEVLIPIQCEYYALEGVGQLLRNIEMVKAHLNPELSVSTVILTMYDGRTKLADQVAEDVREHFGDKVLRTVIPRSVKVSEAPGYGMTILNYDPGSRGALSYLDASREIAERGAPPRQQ
The assay is described as follows: malachite green phosphate release ATPase assay. The format is biochemical. Conditions: 200 uM ATP, 150 nM protein, 1 mM MgCl2, 50 mM HEPES pH 8.0, 37 C.

A further assay addresses T2, MtTAG (Rv1210) (Mycobacterium tuberculosis, UniProt O05311).
T2 construct: gene tagA

A further assay deals with T3, MsTAG (Ms5082) (Mycolicibacterium smegmatis, UniProt A0R2E4).
T3 construct: gene tag; recombinant, E. coli BL21, pET28a (6xHis) or pGEX-4T-1 (GST)
T3 sequence (A0R2E4 1-209): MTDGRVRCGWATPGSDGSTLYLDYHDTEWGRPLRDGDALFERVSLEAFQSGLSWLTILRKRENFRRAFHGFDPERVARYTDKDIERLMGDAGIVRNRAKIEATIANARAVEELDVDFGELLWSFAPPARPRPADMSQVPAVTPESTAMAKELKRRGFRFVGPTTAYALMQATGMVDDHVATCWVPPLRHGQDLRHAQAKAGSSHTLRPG
The assay is described as follows: malachite green phosphate release ATPase assay. The format is biochemical. The following applies: 200 uM ATP, 150 nM protein, 1 mM MgCl2, 50 mM HEPES pH 8.0, 37 C.

T2 sequence (O05311 entry or part of it): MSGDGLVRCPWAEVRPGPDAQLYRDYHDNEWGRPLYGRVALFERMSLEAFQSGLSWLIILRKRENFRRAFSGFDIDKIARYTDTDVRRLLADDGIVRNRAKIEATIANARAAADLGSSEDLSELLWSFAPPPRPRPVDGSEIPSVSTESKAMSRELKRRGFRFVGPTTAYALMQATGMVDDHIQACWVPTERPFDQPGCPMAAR

On to `Nc1ncnc2c1ncn2[C@@H]1O[C@H](COP(=O)(O)OP(=O)(O)OP(=O)(O)O)[C@@H](O)[C@H]1O` [ATP], for which the “malachite green phosphate release ATPase assay” value on MsParA (Ms6939) is “verifying that MsParA had ATPase activity (Fig. 5A)”; at MtTAG (Rv1210), “MtTAG had an obvious ATPase activity but Rv1210-K78A, its mutant variant, did not”; at MsTAG (Ms5082), “MsTAG was found to have stronger ATPase activity than MsParA under the same conditions”.

(Values after publication PMC3366916, “Characterization of a Conserved Interaction between DNA Glycosylase and ParA in Mycobacterium smegmatis and M. tuberculosis” (PLoS ONE, 2012).)
